Data from patent US20030087906A1, “NITROGEN SUBSTITUTED BIARYL PURINE DERIVATIVES AS POTENT ANTIPROLIFERATIVE AGENTS” (priority 2001, published 2003).
Values joined by “and” are separate entries in the source; they are usually repeats but may differ in a detail not shown here. Identical values can stand only once. “Also recorded” adds a separate entry of the source. Like-named read-outs stand apart in the source and are kept apart here.

How the values were obtained:
CyclinA/cdk2 = CyclinA/cdk2 (Homo sapiens, UniProt P24941); assay: CyclinA/cdk2 protein kinase assay (histone H1 phosphorylation); settings: IC50 CyclinA/cdk2, complex immunopurified from HeLa cells; 15 μM ATP; replicate experiments
CyclinE/cdk2 = CyclinE/cdk2 (Homo sapiens, UniProt P24941); assay: CyclinE/cdk2 protein kinase assay (histone H1 phosphorylation); settings: 15 μM ATP, replicate experiments
HeLa S-3 cells = assay: Inhibition of cell growth of HeLa cells (SRB); type: cell-based, human; settings: 2 days of treatment, replicate experiments
Protocol: Growth inhibition (GI50) values were measured with HeLa S-3 cells selected for growth on plastic. […] One day later, a control plate was fixed by addition of TCA to 5%. After five rinses with tap water the plate was air dried and stored at 4° C. Test compounds were added to the remaining plates at 10-fold dilutions between 0.01 and 100 μM. Two days later all plates were fixed as described above. Cells were then stained by the addition of 100 μl per well of 0.4% sulforhodamine B (SRB) in 1% acetic acid for 30 min at 4° C. Wells were then quickly rinsed 5×with acetic acid (1%) and allowed to air dry. The SRB was then solubilized by the addition of 100 μl per well of unbuffered 10 mM Tris base. Dye was quantified by measuring absorbance at 490 nm on a Molecular Devices kinetic microplate reader. Growth at each inhibitor concentration relative to the untreated control was calculated according to the following equation: percent growth=100×(T−To)/(C−To), where T was the average optical density (OD) of the test wells after 2 days of treatment, To was the average OD of the wells in the control plate on day 0 and C was the average OD of untreated wells. Plots of percent growth versus inhibitor concentration were used to determine the GI50.

CyclinB/cdk1 = molecular target: T1, CyclinB/cdk1 (Homo sapiens, UniProt P06493); assay: CyclinB/cdk1 protein kinase assay (histone H1 phosphorylation); type: biochemical; settings: complex immunopurified from HeLa cells; 15 μM ATP; replicate experiments
T1 construct: Monoclonal antibody against cyclinB (GNS1) is added to the supernatant; endogenous in cells
T1 sequence (P06493 whole entry): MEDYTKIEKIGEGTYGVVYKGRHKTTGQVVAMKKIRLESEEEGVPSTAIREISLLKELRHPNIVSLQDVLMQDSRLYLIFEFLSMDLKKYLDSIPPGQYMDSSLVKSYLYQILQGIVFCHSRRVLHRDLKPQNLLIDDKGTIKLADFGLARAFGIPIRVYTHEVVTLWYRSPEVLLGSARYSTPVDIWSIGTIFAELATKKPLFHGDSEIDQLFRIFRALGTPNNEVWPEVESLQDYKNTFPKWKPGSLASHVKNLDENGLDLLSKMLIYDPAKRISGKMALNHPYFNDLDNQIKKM
T1 sequence (P14635 whole entry partner): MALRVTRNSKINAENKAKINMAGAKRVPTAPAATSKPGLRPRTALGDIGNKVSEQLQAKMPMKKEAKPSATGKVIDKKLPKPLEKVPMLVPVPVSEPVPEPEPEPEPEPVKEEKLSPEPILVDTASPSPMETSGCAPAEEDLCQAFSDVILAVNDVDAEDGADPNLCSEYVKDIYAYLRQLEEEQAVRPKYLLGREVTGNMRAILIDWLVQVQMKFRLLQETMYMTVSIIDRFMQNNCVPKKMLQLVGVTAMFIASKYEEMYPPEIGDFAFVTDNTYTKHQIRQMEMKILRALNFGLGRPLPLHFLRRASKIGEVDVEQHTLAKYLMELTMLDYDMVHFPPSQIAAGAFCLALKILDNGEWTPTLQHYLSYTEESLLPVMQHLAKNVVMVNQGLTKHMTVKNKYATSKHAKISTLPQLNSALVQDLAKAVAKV
Protocol: HeLa cells are blocked at the G1/S border by culturing in the presence of 2 mM thymidine for 20 h. The cells are then rinsed 3×in phosphate buffered saline and resuspended in regular medium. After 4 h of culture, the mitotic blocker, nocodazole is added to a final concentration of 75 ng/ml. […] The lysate is then clarified by centrifugation at 10,000×g for 10 min. The supernatant is collected and diluted 1:5 with Lysis Buffer. Monoclonal antibody against cyclinB (GNS1) is added to the supernatant to a final concentration of 5 μg/ml and shaken at 4° C. for 2 h. The immune complexes are then collected by the addition of 200 μl of protein agarose beads for 1 h. The beads are washed 4×in lysis buffer and 1×in kinase assay buffer.
Duplicate assays were performed at each concentration.

[1] = system: Tumor Cells in Hollow Fibers; assay: NCI Hollow Fiber Assay (in vivo evaluation); settings: for IP Score: IP fibers; for SC score: SC fibers
[2] = IC50 CyclinE/cdk2, complex immunopurified from HeLa cells

Row | SMILES | IC50 (CyclinA/cdk2) | IC50 (CyclinE/cdk2; [2]) | IC50 (CyclinB/cdk1) | further results
1 | CCn1cnc2c(Nc3cccc(Cl)c3)nc(N[C@H]3CCCC[C@H]3N)nc21 [Compound 125, reference compound] | 1000 nM | 100 nM | 600 nM | GI50 (HeLa S-3 cells; Homo sapiens, HeLa S3, 48 h): 3000 nM
2 | CC(=O)N[C@H]1CC[C@H](Nc2nc(NCc3ccc(-c4ccc(Cl)cc4)cc3)c3ncn(C(C)C)c3n2)CC1 [Compound 99] | > 10000 nM | 9000 nM | > 10000 nM | GI50 (HeLa S-3 cells; Homo sapiens, HeLa S3, 48 h): 5000 nM
3 | CC(=O)N[C@H]1CC[C@H](Nc2nc(NCc3ccc(-c4ccc(F)c(Cl)c4)cc3)c3ncn(C(C)C)c3n2)CC1 [Compound 100] | > 10000 nM | 4000 nM | > 10000 nM | GI50 (HeLa S-3 cells; Homo sapiens, HeLa S3, 48 h): 600 nM
4 | CC(C)n1cnc2c(NCc3ccc(-c4ccccc4)cc3)nc(NC3(CO)CCCC3)nc21 [Compound 53] | > 10000 nM | 15000 nM and 4000 nM | > 10000 nM | –
5 | CC(C)n1cnc2c(NCc3cccnc3)nc(N[C@@H]3CCCC[C@@H]3N)nc21 [Compound 126, reference compound] | 600 nM and 800 nM | 60 nM | 2000 nM and 200 nM | IC50 (CyclinE/cdk2; read-out: IC50 CyclinE/cdk2, complex immunopurified from HeLa cells): 60 nM
6 | CCCn1cnc2c(NCc3ccc(-c4ccccc4)cc3)nc(N[C@H]3CC[C@H](N)CC3)nc21 [Compound 142] | – | – | – | melting point: 133 to 138 °C
7 | CC(C)n1cnc2c(NCc3ccc(-c4cccnc4)cc3)nc(N[C@H]3CC[C@H](N)CC3)nc21 [Compound 103] | 600 nM and 700 nM | 200 nM | 1000 nM | Cell Types Killed [1]: OVCAR 3,; also recorded: OVCAR 5, H522,; also recorded: MDA-MB-435,; also recorded: SF295; IP Score [1]: 38; SC score [1]: 6
8 | CC(=O)N[C@H]1CC[C@H](Nc2nc(NCc3ccc(-c4cccc(CN)c4)cc3)c3ncn(C(C)C)c3n2)CC1 [Compound 223] | – | – | – | melting point: 200 to 206 °C
9 | CC(=O)N[C@H]1CC[C@H](Nc2nc(NCc3ccc(-c4cccc(F)c4)cc3)c3ncn(C(C)C)c3n2)CC1 [Compound 96] | 8000 nM | 4000 nM | 6000 nM | –
10 | CCn1cnc2c(NCc3ccc(-c4ccccc4)cc3)nc(N[C@H]3CC[C@H](N)CC3)nc21 [Compound 137] | – | – | – | melting point: 175 to 182 °C
11 | CC(=O)N[C@H]1CCCC[C@@H]1Nc1nc(NCc2ccc(-c3ccccc3)cc2)c2ncn(C(C)C)c2n1 [Compound 60] | – | 12000 nM and > 10000 nM | > 10000 nM | GI50 (HeLa S-3 cells; Homo sapiens, HeLa S3, 48 h): 7000 nM
12 | CC(C)n1cnc2c(NCc3ccc(-c4ccccc4)cc3)nc(N[C@@H]3CCCC[C@H]3N)nc21 (racemic) [Compound 58] | 11000 nM and 4000 nM | 2000 nM and 4000 nM | 12000 nM | –
13 | CC(C)n1cnc2c(NCc3ccc(-c4ccccn4)nc3)nc(N[C@H]3CC[C@H](N)CC3)nc21 [Compound 93] | 200 nM and 300 nM | 90 nM and 100 nM | 900 nM | Cell Types Killed [1]: OVCAR-3; IP Score [1]: 22; SC score [1]: 8; GI50 (HeLa S-3 cells): 300 nM
14 | CC[C@H](CO)Nc1nc(NCc2ccc(-c3cccc(NC(C)=O)c3)cc2)c2ncn(C(C)C)c2n1 [Compound 5] | – | – | 7000 nM | GI50 (HeLa S-3 cells; Homo sapiens, HeLa S3, 48 h): 5000 nM
15 | CC(C)n1cnc2c(NCc3ccc(-c4ccc(Cl)cc4)cc3)nc(N[C@H]3CC[C@H](N)CC3)nc21 [Compound 98] | – | – | > 10000 nM | –
16 | Cc1cc(C)cc(-c2ccc(CNc3nc(N[C@H]4CC[C@H](N)CC4)nc4c3ncn4C(C)C)cc2)c1 [Compound 149] | – | – | – | melting point: 86 to 90 °C

Row | SMILES | IC50 (CyclinA/cdk2) | IC50 (CyclinE/cdk2; [2]) | IC50 (CyclinB/cdk1) | further results
17 | CC(C)n1cnc2c(NCc3ccc(-c4ccccc4)cc3)nc(N[C@H]3CCCC[C@H]3NC(=O)Nc3ccccc3)nc21 [Compound 80] | > 10000 nM | > 10000 nM and 4000 nM and 2000 nM | > 10000 nM | –
18 | CC(C)n1cnc2c(NCc3ccc(-c4ccccc4)cc3)nc(N[C@H]3CC[C@H](N)CC3)nc21 [Compound 75] | 3000 nM | 3000 nM | 6000 nM | –
19 | CC(C)n1cnc2c(NCc3ccc(-c4ccccc4)cc3)nc(N[C@@H]3CCCC[C@@H]3N)nc21 (racemic) [Compound 74] | 5000 nM and 2000 nM and 1000 nM | 2000 nM and 3000 nM | 6000 nM | –
20 | CC(=O)N[C@H]1CC[C@H](Nc2nc(NCc3ccc(-c4cccnc4)cc3)c3ncn(C(C)C)c3n2)CC1 [Compound 104] | 7000 nM and 8000 nM | 1000 nM | 2000 nM | GI50 (HeLa S-3 cells; Homo sapiens, HeLa S3, 48 h): 200 nM
21 | CC(C)n1cnc2c(NCc3ccc(-c4ccccc4)nc3)nc(N[C@H]3CC[C@H](N)CC3)nc21 [Compound 86] | 900 nM and 700 nM and 400 nM and 600 nM | – | 2000 nM | Cell Types Killed [1]: OVCAR 3,; also recorded: OVCAR 5, H522; IP Score [1]: 38; SC score [1]: 0
22 | CC(C)n1cnc2c(NCc3ccc(-c4cccc(F)c4)cc3)nc(N[C@H]3CC[C@H](N)CC3)nc21 [Compound 95] | – | – | 4000 nM | –
23 | Cc1ccc(-c2ccc(CNc3nc(N[C@H]4CC[C@H](N)CC4)nc4c3ncn4C(C)C)cc2)cc1 [Compound 13] | 4000 nM and 1000 nM and 800 nM | 2000 nM and 300 nM and 900 nM | 4000 nM | –
24 | CC(=O)N[C@H]1CC[C@H](Nc2nc(NCc3cccc(-c4ccccc4)c3)c3ncn(C(C)C)c3n2)CC1 [Compound 135] | – | – | – | melting point: 183 to 185 °C
25 | CC(=O)N[C@H]1CC[C@H](Nc2nc(NCc3ccc(-c4cccc(Cl)c4)cc3)c3ncn(C(C)C)c3n2)CC1 [Compound 110] | 600 nM | 2000 nM | – | Cell Types Killed [1]: OVCAR-3; IP Score [1]: 14; SC score [1]: 0; GI50 (HeLa S-3 cells): 20 nM
26 | C=CCn1cnc2c(NCc3ccc(-c4ccccc4)cc3)nc(N[C@H]3CC[C@H](N)CC3)nc21 [Compound 146] | – | – | – | melting point: 111 to 114 °C
27 | CC(C)n1cnc2c(NCc3ccc(-c4ccc(F)c(Cl)c4)cc3)nc(N[C@H]3CC[C@H](N)CC3)nc21 [Compound 14] | – | – | 7000 nM | GI50 (HeLa S-3 cells): 30 nM
28 | CC(=O)N[C@H]1CC[C@H](Nc2nc(NCc3ccc(-c4ccsc4)nc3)c3ncn(C(C)C)c3n2)CC1 [Compound 124] | 2000 nM | 800 nM | – | Cell Types Killed [1]: OVCAR-3; IP Score [1]: 28; SC score [1]: 0
29 | CCCN[C@H]1CC[C@H](Nc2nc(NCc3ccc(-c4ccc(C)s4)cc3)c3ncn(C(C)C)c3n2)CC1 [Compound 159] | – | – | – | melting point: 150 to 155 °C
30 | N[C@H]1CC[C@H](Nc2nc(NCc3ccc(-c4ccccc4)cc3)c3ncn(C4CCCC4)c3n2)CC1 [Compound 144] | – | – | – | melting point: 144 to 146 °C
31 | CC(=O)N[C@H]1CC[C@H](Nc2nc(NCc3ccc(-c4ccccn4)nc3)c3ncn(C(C)C)c3n2)CC1 [Compound 94] | 600 nM and 200 nM | 300 nM | 400 nM | Cell Types Killed [1]: COLO205,; also recorded: OVCAR-3, H522; IP Score [1]: 22; SC score [1]: 2; GI50 (HeLa S-3 cells; Homo sapiens, HeLa S3, 48 h): 100 nM
32 | CC(C)n1cnc2c(NCc3ccc(-c4ccc(F)cc4)cc3)nc(N[C@H]3CC[C@H](N)CC3)nc21 [Compound 101] | – | – | 4000 nM | –
